Results reported in patent publication US20070270393A1, “Methods and compositions for modulation of sleep cycle” (priority 2006, published 2007).
“And” between values parts separate entries of the source, which are not always exact repeats. Identical values can stand only once.

Experiments:
MR and GR = details: Reul and de Kloet 1985; cited from earlier work
[1] = system: nocturnal HPA axis activity in healthy controls; assay: Two day repeated measures study of fludrocortisone's acute effects on nocturnal HPA axis activity; format: in vivo, human
Protocol: Nine healthy subjects were recruited from the community via flyers and internet postings. Subjects responding to ads were phone screened to determine if subjects met initial eligibility criteria. Those subjects meeting criteria underwent physical examination, screening labs (complete blood count, comprehensive metabolic panel, urine analysis, urine toxicology screen, TSH, FT4, serum pregnancy test) and EKG. A SCID was performed to rule out Axis I and Axis II DSM-TR pathology. At the time of this analysis and manuscript preparation, 9 subjects have been enrolled. Inclusion criteria were: (1) participants are age 18 to 85 years old with a HAM-D score less than or equal to 5. Exclusion criteria were: (1) personal history of Axis I or Axis II disorders; (2) active medical problems; (3) abuse of drugs or alcohol in the 6 months prior to study; (4) use of additional prescription medications, street drugs or alcohol during the week before the study; (5) currently pregnant or lactating.
This study is a two day repeated measures study of fludrocortisone's acute effects on nocturnal HPA axis activity in healthy controls. Blood samples were taken every 30 minutes, beginning at 1600 to 2400 on Days 1. At 1400 on Day 2, all subjects were given 0.5 mg of fludrocortisone. Blood was then resampled from 1600 to 2400 on Day 2 to assess nocturnal changes in HPA axis activity. Blood sampling was timed in the first half of the night to coincide with the time period of greatest activity of MR.
Group averages, standard deviation and effect sizes are reported. The primary end-points were chosen to be mean cortisol and ACTH from 1600 to 2400 when greatest mineralocorticoid receptor activity is expected. To determine the differential effects of fludrocortisone, data from all subjects are pooled and the average values from 1600 to 2400 are computed. Next, mean values across this time interval are computed before (Time 1) and after (Time 2) fludrocortisone and the effect size for the difference between pooled mean values is computed.

[2] = biological target: T1, glucocorticoid (GR) receptors (Homo sapiens, UniProt P04150); details: literature; cited from earlier work
T1 sequence (P04150 1-777): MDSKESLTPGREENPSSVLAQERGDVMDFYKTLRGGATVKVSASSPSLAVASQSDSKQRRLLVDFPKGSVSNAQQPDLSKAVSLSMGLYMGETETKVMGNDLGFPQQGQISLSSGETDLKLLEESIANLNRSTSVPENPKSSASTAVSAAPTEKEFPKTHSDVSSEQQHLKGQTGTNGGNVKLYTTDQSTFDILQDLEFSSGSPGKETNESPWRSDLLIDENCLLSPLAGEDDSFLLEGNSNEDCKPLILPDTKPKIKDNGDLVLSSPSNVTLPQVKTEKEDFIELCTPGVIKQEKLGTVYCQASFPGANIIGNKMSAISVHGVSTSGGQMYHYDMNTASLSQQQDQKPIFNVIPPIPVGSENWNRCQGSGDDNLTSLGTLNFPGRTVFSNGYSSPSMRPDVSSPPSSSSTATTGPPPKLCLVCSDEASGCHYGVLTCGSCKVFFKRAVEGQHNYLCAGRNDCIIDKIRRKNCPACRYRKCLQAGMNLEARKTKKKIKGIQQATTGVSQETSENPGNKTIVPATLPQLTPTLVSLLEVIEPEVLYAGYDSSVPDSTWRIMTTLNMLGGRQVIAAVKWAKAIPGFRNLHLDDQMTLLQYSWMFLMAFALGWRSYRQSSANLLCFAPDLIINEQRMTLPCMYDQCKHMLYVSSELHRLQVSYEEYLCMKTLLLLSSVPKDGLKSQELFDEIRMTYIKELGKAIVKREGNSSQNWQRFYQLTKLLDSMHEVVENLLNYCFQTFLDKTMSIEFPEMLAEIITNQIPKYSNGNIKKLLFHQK

[3] = 0.5 mg fludrocortisone, treatment vs baseline

In the case of C[C@]12CCC(=O)C=C1CC[C@@H]1[C@@H]2[C@@H](O)C[C@@]2(C)[C@H]1CC[C@]2(O)C(=O)CO [cortisol], the “affinity for MR relative to GR” value (MR and GR) is listed as “greater affinity for MR than GR”.
In the case of C[C@]12CCC(=O)C=C1CC[C@H]1[C@@H]3CC[C@](O)(C(=O)CO)[C@@]3(C)C[C@H](O)[C@@]12F [fludrocortisone], the “Mean ACTH (1600 to 2400), Difference (Tx − Baseline)” value ([1]; 0.5 mg fludrocortisone at 1400 on Day 2) is reported as 5.76 pg/mL, the “Mean Cortisol (1600 to 2400), Difference (Tx − Baseline)” value ([1]; 0.5 mg fludrocortisone at 1400 on Day 2, 9 healthy subjects) is reported as 2.19 µg/dL and the “Mean Cortisol/ACTH (1600 to 2400), Difference (Tx − Baseline)” value ([1]; 0.5 mg fludrocortisone, post-hoc analysis) is reported as 0.0686 and 0.07. For the same compound, the “Mean ACTH (1600 to 2400), Effect Size” value [1, 3] was 4.46, the “Mean Cortisol (1600 to 2400), Effect Size” value [1, 3] was 1.65 and the “Mean Cortisol/ACTH (1600 to 2400), Effect Size” value [1, 3] was 0.92. For the same compound, the “Mean ACTH (1600 to 2400), AUC Treatment” value ([1]; after 0.5 mg fludrocortisone) was 13.2 pm/ml and the “Mean Cortisol (1600 to 2400), AUC Treatment” value ([1]; after 0.5 mg fludrocortisone) was 1.77 µg/dL.
In the case of CC#C[C@]1(O)CC[C@H]2[C@@H]3CCC4=CC(=O)CCC4=C3[C@@H](c3ccc(OCCN(C)C)cc3)C[C@@]21C [RU009, 11-beta-(4-dimethyl-aminoethoxyphenyl)-17-alpha-(propynyl-17beta-hydroxy-4,9-estradien-3-one)], the “antagonist of glucocorticoid (GR) receptors” value [2] is listed as “GR antagonist effects”.
